Source: patent US11690824B2, “Antibacterial compounds” (THE GENERAL HOSPITAL CORPORATION, priority 2018, dated 2023)
Converted amounts (≈) assume the structure as drawn.

Tests used:
[1] = system: K. pneumoniae WGLW2; test: MIC assay; format: cell-based, Klebsiella pneumoniae; settings: Klebsiella pneumoniae; K. pneumoniae WGLW2; read-out: Minimum inhibitory concentration
Text: (§1) Bacterial strains, growth conditions, and persister isolation. Methicillin-resistant S. aureus strains, MW2 BAA-1707, ATCC 33591, and JE2, methicillin-susceptible S. aureus strains, NCTC 8325, Newman, and ATCC 29213, vancomycin-resistant S. aureus strain, VRS1, Enterococcus faecium E007, vancomycin-resistant E. faecium strains, C68,^7 WB312, and WC196, Klebsiella pneumoniae WGLW2 (BEI Resources, Manassas, Va., USA), Acinetobacter baumannii ATCC 17978, Pseudomonas aeruginosa PA14, and Enterobacter aerogenes ATCC 13048 were used to test antimicrobial activity (Table 1). S. aureus strains were grown in tryptic soy broth (TSB) (BD, Franklin Lakes, N.J., USA), and E. faecium was grown in brain-heart infusion (BHI) broth (BD, Franklin Lakes, N.J., USA) at 37° C. K. pneumoniae, A. baumannii, P. aeruginosa, and E. aerogenes were grown in Luria Bertani (LB) broth (BD, Franklin Lakes, N.J., USA) at 37° C.
(§2) Minimal inhibitory concentration (MIC) assay. The MICS of antibiotics were determined by the standard micro-dilution method recommended by the Clinical and Laboratory Standards Institute. MIC assays were conducted in biological triplicate.

[2] = system: MRSA MW2; test: Serial passage resistance development; format: cell-based, S. aureus; settings: 25 days, sub-MIC concentrations
Method: Serial passage resistance development. […] Briefly, an extended range of concentrations of nTZDpa was generated by two-fold serial dilution with cation-adjusted Mueller Hinton (CaMH) broth (Difco, Detroit, USA) from three different starting concentrations (20, 24, and 32 μg/mL) covering 0.1875 to 32.0 μg/mL, which extended over three rows of the 96-well plate. Three sets of the extended gradient of nTZDpa were created in the 96-well plate to provide triplicates of the experiment. […] MRSA MW2 overnight cultures were adjusted to 1×10^6 CFU/mL in CaMH broth, and 50 μL of the diluted cultures were dispensed into the 96-well plates containing 50 μL of the extended gradient of antibiotics. After incubation for 24 h at 35° C., bacterial growth was determined by measuring optical density at 600 nm using a SpectraMax plate reader (Molecular Devices, Sunnyvale, Calif.), and growth was defined as an optical density reading of ≥0.1. Bacterial cells growing at the highest concentration of the antimicrobial (just below the MIC) were diluted 1:1000 in CaMH broth and then used to inoculate the next day's serial-passage plate. The remaining bacterial cells were stored at −80° C. in CaMH broth with 16% glycerol. This process was repeated for 25 days.

[3] = system: MRSA MW2 biofilms; test: Biofilm persister killing assay; format: cell-based, S. aureus; settings: 16 μg/ml nTZDpa combined with 10 μg/ml gentamicin, 24 h
Method: Biofilm persister killing assay. An overnight culture of cells was diluted 1:200 with TSB supplemented with 0.2% glucose and 3% NaCl. A 13 mm-diameter Millipore mixed cellulose ester membrane (EMD Millipore GSWP01300) was placed at the bottom of each well of a 12-well plate (Falcon 353043). 1 mL of the diluted culture was added to each well and incubated statically at 37° C. for 24 h. The membranes were washed 3-times with PBS and transferred to a fresh 12-well plate. 1 mL of PBS containing the desired concentration of antibiotics was added to each well, and then the plate was incubated statically at 37° C. for 24 h. The membranes were washed 3 times with PBS, placed in 2-mL microcentrifuge tubes containing 1 mL PBS, and sonicated in an ultrasonic bath (Fisher Scientific FS 30) for 10 min. The sonicated samples were serially diluted and spot-plated on TSA to enumerate the number of live cells. The experiment was conducted in biological triplicate.

[4] = system: MRSA MW2; test: SYTOX Green membrane permeability assay; format: cell-based, S. aureus
Method: SYTOX Green membrane permeability assay. […] The washed cells were adjusted to OD600=0.4 with PBS. SYTOX Green (Molecular Probes, Waltham, Mass., USA) was added to 10 mL of the diluted bacterial suspension to a final concentration of 5 μM and incubated for 30 min at room temperature in the dark. 50 μL of the bacteria/SYTOX Green suspension was mixed with 50 μl of PBS containing twice the desired concentrations of compounds in black, clear-bottom, 96-well plates (Corning no. 3904). Fluorescence was measured at room temperature using a spectrophotometer (SpectraMax M2, Molecular Devices), with excitation and emission wavelengths of 485 nm and 525 nm, respectively. All experiments were conducted in biological triplicate.

[5] = system: human erythrocytes; test: Human blood hemolysis; format: cell-based
Method: Human blood hemolysis. Hemolytic activity was evaluated as described in a previous study. Briefly, 100 μL of 4% human erythrocytes (Rockland Immunochemicals, Limerick, Pa., USA) was added to 100 μL of 2-fold serial dilutions of compounds in PBS, 0.2% DMSO (negative control), or 2% Triton-X 100 (positive control) in a 96-well plate. The 96-well plate was incubated at 37° C. for 1 h and then centrifuged at 500× g for 5 min. 50 μL of the supernatant was transferred to a fresh 96-well plate, and absorbance of supernatants was measured at 540 nm. Percent hemolysis was calculated using the following equation: (A540 nm of compound treated sample−A540 nm of 0.1% DMSO treated sample)/(A540 nm of 1% Triton X-100 treated sample−A540 nm of 0.1% DMSO treated sample)×100. HC50 (concentration of a compound causing 50% hemolysis) was determined using SigmaPlot 10.0 (Systat Software Inc., San Jose, Calif., USA).

[6] = system: HepG2; test: Cytotoxicity (WST-1); format: cell-based; settings: 32 μg/ml
Method: Cytotoxicity. […] HepG2 and HKC-8 cells were grown in Dulbecco's modified Eagle F-12 media mixed 1:1 with Ham's F-12 (DMEM/F-12, Life Technologies, Carlsbad, Calif., USA) supplemented with 10% FBS and 4 mM L-glutamine at 37° C. in 5% CO2. For cytotoxicity assays, HepG2 or HKC-8 was cultured in 96-well plates in 100 μL/well of the proper media to reach 70-80% confluence. The cells were then treated with a range of concentrations of nTZDpa or its analogs for 72 h. 10 μL of WST-1 (Roche, Mannheim, Germany) was added per well for the last 4 h of the 72 h period. WST-1 reduction was measured at absorbance 450 nm. The percent […] relative to that of the no-treatment control was calculated. The assay was carried out in biological triplicate.

[7] = system: vancomycin-resistant Enterococcus faecium strains; test: MIC against vancomycin-resistant strains; format: cell-based
Text: as §1, §2

[8] = system: Gram-negative bacteria; test: MIC against Gram-negative bacteria; format: cell-based
Text: as §1, §2

**Q.** `O=C(O)c1c(Sc2ccccc2)c2cc(Cl)ccc2n1Cc1ccc(Cl)cc1` [nTZDpa] was tested. Which MIC [1] did it give?
**A.** > 64 µg/mL

**Q.** What about the “increase of MIC over wild-type after serial passage” value [2] of the same compound?
**A.** no increase in the nTZDpa MIC was observed

**Q.** What about the “MRSA persisters formed in biofilms” value [3] of the same compound?
**A.** completely eradicated MRSA persisters formed in biofilms

**Q.** What about the “concentration of maximum SYTOX Green fluorescence” value [4] of the same compound?
**A.** 16 µg/mL

**Q.** And the “hemolysis of human erythrocytes” value ([5]; 32 μg/ml)?
**A.** < 25%

**Q.** What about the “toxicity to human erythrocytes” value ([5]; at or below 16 μg/mL) of the same compound?
**A.** did not show significant toxicity

**Q.** What about the “HC50: median hemolytic concentration” value ([5]; human erythrocytes) of the same compound?
**A.** 47 µg/mL

**Q.** And the “cell death of HepG2” value [6]?
**A.** ~30%

**Q.** And the MIC [7]?
**A.** 4 µg/mL (≈ 9.34 µM)

**Q.** And the “antimicrobial activity against Gram-negative bacteria” value [8]?
**A.** not effective against Gram-negative bacteria
